Reference: patent US20260345798A1, “COMPOUNDS AND METHODS OF USE THEREOF” (Virginia Commonwealth University, priority 2023, published 2026)
Residues, ends and D or L forms follow the SMILES beside them.

Assays:
[1] = tested on: MDA-9/Syntenin: Src signaling pathways in melanoma cell lines; test: Western blotting of signaling proteins, other melanoma cell lines; type: cell-based, human; conditions: various melanoma cell lines; Western blot FIG. 12
Description: FIG. 12 is a Western blot of different signaling molecules as indicated for indicated cell lines treated with IVMT-Rx-3 at varying concentrations.
(§1) Western blotting was performed following a standard protocol as described previously (6,8,18,29). Antibodies used in this study were purchased from Cell Signaling Technology (Boston, MA): p-Src (Y416), total Src, matrix metalloproteinase-2 (MMP-2) and matrix metaloproteinase-9 (MMP-9), focal adhesion kinase (FAK), p IKKα/β (S176/180), total IKK, p P38 (T180/Y182) and total P38. MDA-9/Syntenin antibody was obtained from Abnova Inc. (Taiwan). β-actin (Sigma-Aldrich, St. Louis, MO) was used as an endogenous loading control. Fibronectin was purchased from EMD Millipore (Billerica, MA).

[2] = tested on: Src, P38 and IκB phosphorylation in A-375 and C8161.9 cells; test: Western blotting of signaling proteins, human melanoma cells; type: cell-based; conditions: 24 hours
Description: FIG. 4B is a Western blot of C8161.9 and A-375 cells treated with indicated doses of IVMT-Rx-3 for 24 hours. Cell lysates were subjected to Western blotting analysis to determine the expression levels of various signaling proteins (as shown) associated with MDA-9/Syntenin: Src interactions. Western blotting densitometry and relative intensity of protein bands were calculated using Image J software. The values are provided.
as §1

[3] = tested on: T cell, MDSC and Treg populations; test: Flow cytometry of immune cells in lungs of B16-injected mice; type: in vivo, mouse; conditions: 30 mg/kg I.P., 6 injections
From the text: FIG. 6B is a series of histograms showing the number of nodules/lung, T cell populations (CD8^+IFN-γ^+) and myeloid-derived suppressor cells (MDSCs) in the lungs of the treatment groups described in FIG. 6A, as measured by flow cytometry. *: Statistical significance (p<0.05);**: Statistical significance (p<0.01);***: Statistical significance (p<0.001). ****: Statistical significance (p<0.0001).
FIG. 15 is a histogram showing the comparative effect of DMSO and IVMT-Rx-3 on Treg populations, as measured by flow cytometry. 5×10^5 B16 cells were injected intravenously in C57BL/6 mice, and the mice were treated with DMSO control or IVMT-Rx-3 (intraperitoneal injection 30 mg/kg, 3× in a week, 6 injections in total). MDSC (Cd11^+Gr1^+) and Treg populations (CD4^+CD25^+[…]) in the lungs were measured by flow cytometry.
Single cells were isolated from lungs by digestion with collagenase D and DNAse I. Cells were stained with the corresponding antibodies and fluorescence signals were measured with a BD Fortessa flow cytometer (BD Biosciences, San Jose, CA). Data were analyzed further with FACs DIVA software (BD Biosciences, San Jose, CA) (18). The antibodies used in this study were CD3, Gr1, CD11b, IFN-γ, CD45, CD8 (Biolegend, San Diego, CA, USA). CD4 (BD Biosciences, San Jose, CA, USA), CD25, and FOXP3 (eBiosciences, CA, USA).

Compound: Cc1cc(NC(=O)c2nc3[nH]c4c(c(=O)n3n2)CCC4)c(C)cc1NC(=O)CCOCCC(=O)N[C@H](C(=O)N[C@@H](CC(N)=O)C(=O)N[C@@H](CCC(=O)O)C(=O)N[C@@H](Cc1ccc(O)cc1)C(=O)N[C@@H](Cc1ccc(O)cc1)C(=O)N[C@H](C(=O)O)C(C)C)[C@@H](C)O [IVMT-Rx-3] (HELM PEPTIDE1{[Cc1cc(NC(=O)c2nc3[nH]c4c(c(=O)n3n2)CCC4)c(C)cc1NC(=O)CCOCCC(=O)[*:2]].T.N.E.Y.Y.V}$$$$V2.0)
- inactivation of MDA-9/Syntenin: Src associated signaling pathways [1]: inactivation of various signaling pathways
- Src activation (Src phosphorylation) [2]: significantly reduced Src activation
- levels of p-P38, p-Src, and pIκB [2]: Reduced levels
- IFN-γ-producing CD8+ T cell populations [3]: significant increase
- MDSC populations [3]: suppression of MDSCs
- Treg population ([3]; 5×10^5 B16 cells): no significant changes
